Measured values as given in patent US10519504B2, “Methods for treatment of oncological disorders using epimetabolic shifters, multidimensional intracellular molecules, or environmental influencers” (Berg LLC, priority 2009, dated 2019).

Tests used:
Bcl-2 = assay: Western blot of building block components, Bcl-2; type: cell-based; conditions: for Bcl-2 (summary): oncogenic cells
Method: (§1) Skmel-28 melanoma cells were cultured in DMEM/F12 supplemented with 5% Fetal Bovine Serum (FBS) and 1× final concentration of Antibiotics. The cells were grown to 85% confluency and treated with building block components for 3, 6, 12 and 24 hours. The cells were then pelleted and a Western blot analysis was performed. The test building block components included L-Phenylylalanine, DL-Phenylylalanine, D-Phenylylalanine, L-Tyrosine, DL-Tyrosine, D-Tyrosine, 4-Hydroxy-phenylpyruvate, phenylacetate, 3-methoxy-4-hydroxymandelate (vanillylmandelate or VMA), vanillic acid, 4-hydroxy-benzoate, pyridoxine, panthenol, mevalonic acid, Acetylglycine, Acetyl-CoA, Farnesyl, and 2,3-Dimethoxy-5-methyl-p-benzoquinone.
(§2) In the Western Blot Analysis, the cells were pelleted in cold PBS, lysed, and the protein levels were quantified using a BCA protein assay. The whole cell lysate was loaded in a 4% loading 12% running Tris-HCl gel. The proteins were then transferred to a nitrocellulose paper then blocked with a 5% milk Tris-buffered solution for 1 hour. The proteins were then exposed to primary antibodies (Bcl-2 and Caspase-3) overnight. The nitrocellulose paper was then exposed to Pico Chemilluminescent for 5 min and the protein expression was recorded. After exposure, actin was quantified using the same method. Using ImageJ the levels of protein expression were quantified. A t-Test was used to analyze for statistical significance.

Caspase-3 = assay: Western blot of building block components, Caspase-3; type: cell-based; conditions: for Caspase-3 expression: Skmel-28; for Caspase-3 expression (summary): oncogenic cells
Method: as §1, §2

Melanoma cells = assay: Cell proliferation assay (cell count) of building block combinations; type: cell-based
Method: This set of experiments used a cell proliferation assay to assess the effect of combining different building block molecules on cell proliferation.
The first study examined the effect of combining 4-Hydroxy-Benzoate with Benzoquinone. Cells were incubated for 48 hours, after which a cell count was performed for the live cells. Each test group was compared to the control, and each combination groups were compared to Benzoquinone control. The compounds were statistically analyzed for the addition of Benzoquinone.
Additional studies were performed testing additional molar ratios. For the first test 4-Hydroxybenzoic were tested at concentrations of 500 nM, 1 μM, and 50 μM. These concentrations were tested in combination with 2,3-Dimethoxy-5-methyl-p-benzoquinone (Benzo). The concentration of Benzo tested were 25 μM, 50 μM, and 100 μM. Melanoma cells were grown to 80% confluency and seeded in 6 well plates at a concentration of 40K cells per well. The cells were treated with CoQ10, 4-Hydroxybenzoate, Benzo, and a combination of 4-Hydroxybenzoate/Benzo.
A T-test was performed with p<0.05 as statistically significant.

[1] = tested on: neonatal fibroblast cells; assay: Cell proliferation assay (coulter counter); type: cell-based; conditions: HB 500 nM, 5 μM, 25 μM, alone and with benzoquinone 25, 50, 100 μM; 24 hours
Method: A cell proliferation assay was also performed on neonatal fibroblast cells. The concentrations of HB tested were 500 nM, 5 μM, and 25 μM. HB was also tested in combination with benzoquinone at a concentrations of 25 μM, 50 μM, and 100 μM. Melanoma cells were seeded at 40 k cells per well and were treated for 24 hours. The cells were trypsinized and quantified using a coulter counter.

[2] = tested on: induced pancreatic cancer; conditions: Group H: 5 mg/kg
cancer cells = conditions: cited from earlier work
[3] = Skmel-28, 24 hours, concentration not given
[4] = Skmel-28, all time points and concentrations tested (500 nM, 1 μM, 25 μM, 50 μM)
[5] = all time points and concentrations tested (500 nM, 1 μM, 25 μM, 50 μM)

Question: For NC(Cc1ccccc1)C(=O)O (racemic) [DL-Phenylalanine], which Bcl-2 expression (Bcl-2; [3]) is on record?
Answer: statistically significant decrease in Bcl-2

Question: What about the Caspase-3 expression (Caspase-3; 3 hours, concentration not given) of the same molecule?
Answer: statistically significant increase in Caspase-3

Question: With NC(Cc1ccc(O)cc1)C(=O)O (racemic) [DL-Tyrosine] as the molecule, how does the Bcl-2 expression (Bcl-2; Skmel-28, 1 μM and 15 μM, 12 hours) read?
Answer: statistical decrease in Bcl-2 expression

Question: And the Bcl-2 expression (Bcl-2; Skmel-28, 5 μM, 24 hours)?
Answer: statistical decrease in Bcl-2 expression

Question: What about the Caspase-3 expression (Caspase-3; 5 μM and 15 μM, 12 hours) of the same molecule?
Answer: increase in Caspase-3 expression

Question: With O=C(O)C(=O)Cc1ccc(O)cc1 [4-Hydroxy-phenylpyruvate] as the molecule, how does the Bcl-2 expression (Bcl-2; Skmel-28, 5 μM and 15 μM, 24 hours) read?
Answer: significant reduction in Bcl-2 expression

Question: What about the “Bcl-2 (summary)” value (Bcl-2) of the same molecule?
Answer: significant reduction in Bcl-2

Question: And the Caspase-3 expression (Caspase-3; 5 μM and 15 μM, 12 hours)?
Answer: significant increase in Caspase-3 expression

Question: What about the “Caspase-3 expression (summary)” value (Caspase-3) of the same molecule?
Answer: increase in Caspase-3 expression

Question: Which Bcl-2 expression (Bcl-2; Skmel-28, 15 μM, 24 hours) does the source give for O=C(O)c1ccc(O)cc1 [4-Hydroxybenzoate, 4-hydroxy-benzoate] here?
Answer: significant reduction in Bcl-2 expression

Question: And the “cell number vs control” value (Melanoma cells; 48 hours)?
Answer: significant decrease in cell number

Question: What about the cell proliferation (Melanoma cells; HB 500 nM, 1 μM, 50 μM) of the same molecule?
Answer: significant decrease in cell proliferation

Question: What about the fibroblast cell number [1] of the same molecule?
Answer: did not show a significant reduction in fibroblast cells

Question: What does the source list for CC(=O)SCCNC(=O)CCNC(=O)[C@H](O)C(C)(C)COP(=O)(O)OP(=O)(O)OC[C@H]1O[C@@H](n2cnc3c(N)ncnc32)[C@H](O)[C@@H]1OP(=O)(O)O [Acetyl-CoA]?
Answer: Bcl-2 expression (Bcl-2; [4]): no significant observed reduction in Bcl-2; Caspase-3 expression (Caspase-3; [5]): no significant observed reduction in Bcl-2 or increase in Caspase-3 expression

Question: Which results are given for CC(=O)NCC(=O)O [Acetylglycine]?
Answer: Bcl-2 expression (Bcl-2; Skmel-28, 5 μM and 25 μM, 12 hours): significant decrease in Bcl-2 expression; Bcl-2 expression (Bcl-2; Skmel-28, 100 μM, 24 hour): significant decrease in Bcl-2

Question: With N[C@H](Cc1ccccc1)C(=O)O [D-Phenylalanine] as the molecule, how does the Bcl-2 expression (Bcl-2; Skmel-28, 5 μM and 25 μM, 3 hours) read?
Answer: significant reduction

Question: What about the Bcl-2 expression (Bcl-2; Skmel-28, 5 μM, 25 μM and 100 μM, 6 hours) of the same molecule?
Answer: significant reduction in Bcl-2 expression

Question: And the Caspase-3 expression (Caspase-3; 5 μM and 100 μM, 6 hours)?
Answer: significant increase in Caspase-3 expression

Question: Which results are given for N[C@H](Cc1ccc(O)cc1)C(=O)O [D-Tyrosine]?
Answer: Bcl-2 expression (Bcl-2; Skmel-28, 5 μM and 15 μM, 12 and 24 hours): reduction in Bcl-2 expression; Caspase-3 expression (Caspase-3; 1 μM, 12 and 24 hour): increase in Caspase-3 expression; Caspase-3 expression (Caspase-3; 5 μM, 3, 12 and 24 time periods): significantly increased; Caspase-3 expression (Caspase-3; 5 μM, 12 hour): increase in Caspase-3 expression

Question: Which “survival after 28 days” value [2] does the source give for COc1cccc2c1C(=O)c1c(O)c3c(c(O)c1C2=O)C[C@@](O)(C(=O)CO)C[C@@H]3O[C@H]1C[C@H](N)[C@H](O)[C@H](C)O1 [Doxorubicin, reference compound] here?
Answer: a significant number of the animals in Group H had died due to the toxicity of Doxorubicin

Question: With N[C@@H](Cc1ccccc1)C(=O)O [L-Phenylalanine] as the molecule, how does the Bcl-2 expression (Bcl-2; Skmel-28, 5 μM, 6 hours) read?
Answer: statistically significant decrease in Bcl-2

Question: And the Bcl-2 expression (Bcl-2; Skmel-28, 25 μM, 12 hours)?
Answer: statistically significant decrease in Bcl-2

Question: What about the Bcl-2 expression (Bcl-2; Skmel-28, 100 μM, 3 hours and 12 hours) of the same molecule?
Answer: statistically significant decrease in Bcl-2

Question: What about the “Bcl-2 expression compared to the control” value (Bcl-2; Skmel-28, remaining time points, not statistically significant) of the same molecule?
Answer: constant trend for the decrease in Bcl-2

Question: What about the “Bcl-2 (summary)” value (Bcl-2) of the same molecule?
Answer: significant reduction in Bcl-2

Question: What about the Caspase-3 expression (Caspase-3; 25 μM, 12 hours) of the same molecule?
Answer: statistically significant increase in Caspase-3

Question: And the “Caspase-3 expression (summary)” value (Caspase-3)?
Answer: increase in Caspase-3 expression

Question: Which Bcl-2 expression (Bcl-2; Skmel-28, 5 μM, 24 hours) does the source give for N[C@@H](Cc1ccc(O)cc1)C(=O)O [L-Tyrosine] here?
Answer: statistically significant decrease in Bcl-2

Question: What about the Bcl-2 expression (Bcl-2; Skmel-28, 500 μM and 5 μM, 24 hours) of the same molecule?
Answer: statistically significant decrease in Bcl-2

Question: What about the “Bcl-2 (summary)” value (Bcl-2) of the same molecule?
Answer: significant reduction in Bcl-2

Question: And the Caspase-3 expression (Caspase-3; 500 nM, 12 hours)?
Answer: statistically significant increase in Caspase-3

Question: And the “Caspase-3 expression (summary)” value (Caspase-3)?
Answer: increase in Caspase-3 expression

Question: Which results are given for C[C@@](O)(CCO)CC(=O)O [Mevalonic Acid, mevalonic acid]?
Answer: Bcl-2 expression (Bcl-2; [4]): no significant reduction in Bcl-2 expression; Caspase-3 expression (Caspase-3; [5]): no significant reduction in Bcl-2 expression or an increase in Caspase-3 expression

Question: With CC(C)(CO)[C@@H](O)C(=O)NCCCO [Panthenol, panthenol] as the molecule, how does the Bcl-2 expression (Bcl-2; melanoma cells, 25 μM) read?
Answer: significant reduction in Bcl-2 expression

Question: Which Bcl-2 expression (Bcl-2; [3]) does the source give for Cc1ncc(CO)c(CO)c1O [Pyridoxine, pyridoxine] here?
Answer: significant reduction in Bcl-2

Question: Which “Bcl-2 expression, trend” value (Bcl-2; Skmel-28, 100 nM to 100 μM) does the source give for COc1cc(C(O)C(=O)O)ccc1O (stereo not drawn) [VMA, 3-methoxy-4-hydroxymandelate] here?
Answer: downward trend of Bcl-2 expression

Question: What about the “apoptotic effect (Bcl-2, Caspase-3)” value (Bcl-2; Skmel-28, 100 nM to 100 μM) of the same molecule?
Answer: no statistically significant apoptotic effect

Question: With COc1cc(C(=O)O)ccc1O [Vanillic Acid, vanillic acid] as the molecule, how does the Bcl-2 expression (Bcl-2; Skmel-28, 500 nM and 5 μM, 24 hour) read?
Answer: significantly reduce Bcl-2 expression

Question: And the Bcl-2 expression (Bcl-2; Skmel-28, 15 μM, 3 hours)?
Answer: reduction in Bcl-2 expression

Question: What about the Caspase-3 expression (Caspase-3; 15 μM, 24 hours) of the same molecule?
Answer: significant increase in Caspase-3 expression

Question: Which “expression of BCL2 and BCL-XL” value (cancer cells; Deeb et al. 2007) does the source give for C=C1/C(=C\C=C2/CCC[C@]3(C)[C@@H]([C@H](C)CCCC(C)(C)O)CC[C@@H]23)C[C@@H](O)C[C@@H]1O [Vitamin D3, 1α, 25-dihydroxyvitamin D3] here?
Answer: repressing the expression of the anti-apoptotic, pro-survival proteins BCL2 and BCL-XL

Question: What about the “expression of pro-apoptotic proteins (BAX, BAK, BAD)” value (cancer cells; Deeb et al. 2007) of the same molecule?
Answer: inducing the expression of pro-apoptotic proteins

Question: And the p21WAFI/CIPI gene transcription (cancer cells; Deeb et al. 2007)?
Answer: induce gene transcription of the cyclin-dependent kinase inhibitor p21WAFI/CIPI

Question: And the “expression of VEGF” value (cancer cells; Masuda and Jones, 2006)?
Answer: inhibit the expression of vascular endothelial growth factor (VEGF)

Question: What about the “proliferation of tumor-derived endothelial cells” value (cancer cells; Masuda and Jones, 2006) of the same molecule?
Answer: inhibit the proliferation of some tumor-derived endothelial cells
